According to paper PMC5515969, “Effects of 31 FDA approved small-molecule kinase inhibitors on isolated rat liver mitochondria” (Archives of Toxicology, 2016):
Like-named read-outs stand apart in the source and are kept apart here.

Tests used:
[1] = system: isolated rat liver mitochondria; assay: Mitochondrial oxygen consumption (glutamate/malate or succinate driven, state 4 and state 3); assay type: biochemical; conditions: for Glutamate/malate driven respiration State 3 / Glutamate/malate driven respiration State 4 / Succinate-driven respiration State 3 / Succinate-driven respiration State 4: oxygen consumption, DMSO-treated = 1; on State 3 respiration driven by succinate at 10XCmax: key: 0 indicates that the drug had no effects (negative); on State 3 respiration driven by succinate at 1XCmax: key: 0 indicates that the drug had no effects (negative)
Procedure, shortened: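 Rat liver mitochondria (1 mg/ml protein) exposed 5 min to kinase inhibitors in 0.1% DMSO, then O2 consumption measured by Clark-type electrode with glutamate/malate or succinate (state 4), ADP added after 3 min (state 3). Rates normalized to 0.1% DMSO controls set to 1.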

[2] = system: RCC I; assay: RCC I activity in submitochondrial particles; assay type: biochemical, rat; set-up: key to RCC I at 10XCmax / RCC I at 100XCmax / RCC I at 50XCmax / RCC I at 30XCmax / RCC I at 20XCmax: activity relative to DMSO-treated controls (control set as 1 = 100%); conditions: 10XCmax
Procedure, shortened: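 Abs 340 nm (I/V) or 600 nm (II), 1-min reads × 6 min; 550 nm (III, IV), 10-s reads × 2 min. RCC I = rotenone-free minus rotenone rate. DMSO control = 1.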

[3] = target: T1, RCC II (Rattus norvegicus, UniProt P21913+Q641Z9+Q6PCT8+Q920L2); assay: RCC II activity in submitochondrial particles; assay type: biochemical; set-up: key: activity relative to DMSO-treated controls (control set as 1 = 100%)
T1 construct: Submitochondrial particles were prepared by subjecting the intact mitochondria to three successive freeze–thaw cycles; from tissue; host or cells: rat liver mitochondria, used as submitochondrial particles
Procedure, shortened: (§1)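 Kinase inhibitors were preincubated 15 min with submitochondrial particles (1 mg/ml) before complex activities were measured. RCC I was the rotenone-sensitive portion (activity without minus with rotenone). RCC I/V was read at 340 nm and RCC II at 600 nm every 1 min for 6 min. RCC III and IV were read at 550 nm every 10 s for 2 min. Activities are normalized to DMSO controls set as 1.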

[4] = system: RCC III; assay: RCC III activity in submitochondrial particles; assay type: biochemical, rat; set-up: key to RCC III at 100XCmax: activity relative to DMSO-treated controls (control set as 1 = 100%); conditions: 100XCmax
Procedure, shortened: as §1

[5] = system: RCC IV; assay: RCC IV activity in submitochondrial particles; assay type: biochemical, rat; set-up: key to RCC IV at 50XCmax / RCC IV at 100XCmax: activity relative to DMSO-treated controls (control set as 1 = 100%); conditions: 50XCmax, in %
Procedure, shortened: as §1

[6] = system: RCC V; assay: RCC V activity in submitochondrial particles; assay type: biochemical, rat; on RCC V at 5XCmax: key: 0 indicates that the drug had no effects (negative)
Procedure, shortened: as §1

[7] = system: isolated rat liver mitochondria; assay: Mitochondrial inner membrane potential (MMP), Rhodamine 123; assay type: biochemical; conditions: difference in signal between KI and DMSO treated samples at the end of experiments
Source text: Fig. 3 KI effects on mitochondrial inner membrane potential (MMP). […] In a, c, data are means and standard derivations from three separate experiments. *p < 0.05 as compared to DMSO-treated samples at the end of experiments. In b, data are means of two independent experiments

[8] = system: isolated rat liver mitochondria; assay: Mitochondrial swelling (absorbance at 535 nm); assay type: biochemical; conditions: difference in signal between KI and DMSO treated samples at the end of experiments; on Swelling 5XCmax: key: 0 indicates that the drug had no effects (negative)
[9] = cited from earlier work
[10] = cited from earlier work; remark: listed apart in the source
[11] = 1XCmax, DMSO treated samples set as 1
[12] = 2.5XCmax, DMSO treated samples set as 1
[13] = 5XCmax, DMSO treated samples set as 1
[14] = 10XCmax, DMSO treated samples set as 1
[15] = 20XCmax, DMSO treated samples set as 1
[16] = 30XCmax, DMSO treated samples set as 1
[17] = 50XCmax, DMSO treated samples set as 1
[18] = 100XCmax, DMSO treated samples set as 1
[19] = human therapeutic Cmax at FDA recommended dosages, ref product labeling and drug approval packages at the official FDA website
[20] = relative to DMSO treated samples

T1 sequence (Q920L2 35-656): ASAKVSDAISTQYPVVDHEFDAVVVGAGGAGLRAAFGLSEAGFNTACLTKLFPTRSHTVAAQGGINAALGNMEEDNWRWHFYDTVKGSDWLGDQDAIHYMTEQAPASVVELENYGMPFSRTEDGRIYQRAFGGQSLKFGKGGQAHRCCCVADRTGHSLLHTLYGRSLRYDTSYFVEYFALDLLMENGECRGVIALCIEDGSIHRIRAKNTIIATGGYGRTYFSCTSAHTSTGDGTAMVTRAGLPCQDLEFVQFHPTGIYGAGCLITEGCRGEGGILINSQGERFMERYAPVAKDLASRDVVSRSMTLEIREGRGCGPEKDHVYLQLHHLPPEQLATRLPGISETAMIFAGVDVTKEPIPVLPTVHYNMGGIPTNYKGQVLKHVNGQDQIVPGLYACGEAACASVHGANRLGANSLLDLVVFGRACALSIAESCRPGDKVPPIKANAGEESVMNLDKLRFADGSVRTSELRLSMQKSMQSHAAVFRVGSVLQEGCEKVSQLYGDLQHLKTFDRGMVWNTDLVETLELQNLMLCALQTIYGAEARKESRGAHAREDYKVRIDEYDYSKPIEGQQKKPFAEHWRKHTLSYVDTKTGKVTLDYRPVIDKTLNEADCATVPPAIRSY
T1 sequence (P21913 31-282): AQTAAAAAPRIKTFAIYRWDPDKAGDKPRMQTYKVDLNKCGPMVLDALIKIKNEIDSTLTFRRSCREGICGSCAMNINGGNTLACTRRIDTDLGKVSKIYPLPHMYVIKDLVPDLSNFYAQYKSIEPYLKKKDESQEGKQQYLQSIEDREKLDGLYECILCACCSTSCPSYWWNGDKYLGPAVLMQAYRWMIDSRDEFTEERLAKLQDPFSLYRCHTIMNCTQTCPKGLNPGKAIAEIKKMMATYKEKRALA
T1 sequence (Q641Z9 1-169): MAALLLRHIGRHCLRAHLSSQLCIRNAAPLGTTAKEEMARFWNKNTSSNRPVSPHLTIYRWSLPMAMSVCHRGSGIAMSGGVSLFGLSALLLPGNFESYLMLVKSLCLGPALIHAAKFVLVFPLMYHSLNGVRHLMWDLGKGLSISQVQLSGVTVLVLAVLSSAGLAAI
T1 sequence (Q6PCT8 57-159): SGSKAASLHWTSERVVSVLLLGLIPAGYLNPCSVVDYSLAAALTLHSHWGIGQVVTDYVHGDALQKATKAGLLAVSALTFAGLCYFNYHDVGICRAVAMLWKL

In the case of `CC[C@H](Nc1ncnc2[nH]cnc12)c1nc2cccc(F)c2c(=O)n1-c1ccccc1` [Idelalisib], the “State 3 respiration driven by succinate at 1XCmax” value [1, 11] is reported as 0, the “State 4 respiration driven by succinate at 1XCmax” value [1, 11] is reported as 0 and the “State 3 respiration driven by succinate at 2.5XCmax” value [1, 12] is reported as 0. The “State 4 respiration driven by succinate at 2.5XCmax” value [1, 12] was 0, the “State 3 respiration driven by succinate at 5XCmax” value [1, 13] was 0 and the “State 4 respiration driven by succinate at 5XCmax” value [1, 13] was 0. The “State 3 respiration driven by succinate at 10XCmax” value [1, 14] was 0, the “State 4 respiration driven by succinate at 10XCmax” value [1, 14] was 0 and the “State 3 respiration driven by succinate at 20XCmax” value [1, 15] was 0. The “State 4 respiration driven by succinate at 20XCmax” value [1, 15] was 0, the “State 3 respiration driven by succinate at 30XCmax” value [1, 16] was 0 and the “State 4 respiration driven by succinate at 30XCmax” value [1, 16] was 0. For the same compound, the “Glutamate/malate driven respiration State 3” value ([1]; 50-fold Cmax) was 0.76 ± 0.04, the “Glutamate/malate driven respiration State 4” value ([1]; 50-fold Cmax) was 1.00 ± 0.08 and the “Succinate-driven respiration State 3” value ([1]; 50-fold Cmax) was 0.83 ± 0.06. For the same compound, the “Succinate-driven respiration State 4” value ([1]; 50-fold Cmax) was 0.97 ± 0.04, the “State 3 respiration driven by glutamate/malate at 50XCmax” value [1, 17] was 0.76±0.04 and the “State 3 respiration driven by succinate at 50XCmax” value [1, 17] was 0. The “State 4 respiration driven by succinate at 50XCmax” value [1, 17] was 0, the “Glutamate/malate driven respiration State 3” value ([1]; 100-fold Cmax) was 0.66 ± 0.03 and the “Glutamate/malate driven respiration State 4” value ([1]; 100-fold Cmax) was 1.13 ± 0.05. For the same compound, the “Succinate-driven respiration State 3” value ([1]; 100-fold Cmax) was 0.65 ± 0.03, the “Succinate-driven respiration State 4” value ([1]; 100-fold Cmax) was 1.05 ± 0.01 and the “State 3 respiration driven by glutamate/malate at 100XCmax” value [1, 18] was 0.66±0.03. The “State 3 respiration driven by succinate at 100XCmax” value [1, 18] was 0.65±0.03, the “State 4 respiration driven by succinate at 100XCmax” value [1, 18] was 0 and the “lowest concentration significantly affecting mitochondrial oxygen consumption” value ([1]; tested at 1 to 100-fold Cmax) was 50 fold Cmax. For the same compound, the “RCC I at 10XCmax” value ([2]; DMSO treated samples set as 1) was 0, the “RCC II at 1.0XCmax” value ([3]; DMSO treated samples set as 1) was 0 and the “RCC II at 2.5XCmax” value ([3]; DMSO treated samples set as 1) was 0. The “RCC II at 5XCmax” value ([3]; DMSO treated samples set as 1) was 0, the “RCC II at 10XCmax” value ([3]; DMSO treated samples set as 1) was 0 and the “RCC II at 20XCmax” value ([3]; DMSO treated samples set as 1) was 0. For the same compound, the “RCC II at 30XCmax” value ([3]; DMSO treated samples set as 1) was 0, the “RCC II at 50XCmax” value ([3]; DMSO treated samples set as 1) was 0 and the “RCC II at 100XCmax” value ([3]; DMSO treated samples set as 1) was 0. For the same compound, the “RCC III at 100XCmax” value [4] was 0, the “RCC IV at 50XCmax” value ([5]; DMSO treated samples set as 1) was 0 and the “RCC V at 5XCmax” value ([6]; DMSO treated samples set as 1) was 0. The “RCC V at 50XCmax” value [6, 17] was 0, the “MMP measured by Rhodamine 123 at 1XCmax” value [7] was 0 and the “MMP measured by Rhodamine 123 at 2.5XCmax” value [7] was 0. For the same compound, the “MMP measured by Rhodamine 123 at 5XCmax” value [7] was 0, the “MMP measured by Rhodamine 123 at 10XCmax” value [7] was 0 and the “MMP measured by Rhodamine 123 at 20XCmax” value [7] was 0. The “MMP measured by Rhodamine 123 at 30XCmax” value [7] was 0, the “MMP measured by Rhodamine 123 at 50XCmax” value [7] was 0 and the “MMP measured by Rhodamine 123 at 100XCmax” value [7] was 0. The “Swelling 1XCmax” value [8] was 0, the “Swelling 2.5XCmax” value [8] was 0 and the “Swelling 5XCmax” value [8] was 0. The “Swelling 10XCmax” value [8] was 0, the “Swelling 20XCmax” value [8] was 0 and the “Swelling 30XCmax” value [8] was 0. For the same compound, the “Swelling 50XCmax” value [8] was 0, the “Swelling 100XCmax” value [8] was 0 and the Cmax [9, 19] was 4.64 µM. The “Cmax (ng or µg/ml)” value ([9]; human therapeutic maximal blood concentration, ref product labeling) was 1.927 µg/mL and the Cmax ([9]; read-out: Cmax at µM, human therapeutic maximal blood concentration, ref product labeling) was 4.64 µM.

With `CCCS(=O)(=O)Nc1ccc(F)c(C(=O)c2c[nH]c3ncc(-c4ccc(Cl)cc4)cc23)c1F` [Vemurafenib] the “State 3 respiration driven by glutamate/malate at 1XCmax” value [1, 11] was 0, the “State 3 respiration driven by succinate at 1XCmax” value [1, 11] was 0 and the “State 4 respiration driven by glutamate/malate at 1XCmax” value [1, 11] was 0. For the same compound, the “State 4 respiration driven by succinate at 1XCmax” value [1, 11] was 0, the “State 3 respiration driven by glutamate/malate at 2.5XCmax” value [1, 12] was 0 and the “State 3 respiration driven by succinate at 2.5XCmax” value [1, 12] was 0. The “State 4 respiration driven by glutamate/malate at 2.5XCmax” value [1, 12] was 0, the “State 4 respiration driven by succinate at 2.5XCmax” value [1, 12] was 0 and the “State 3 respiration driven by glutamate/malate at 5XCmax” value [1, 13] was 0. The “State 3 respiration driven by succinate at 5XCmax” value [1, 13] was 0, the “State 4 respiration driven by glutamate/malate at 5XCmax” value [1, 13] was 0 and the “State 4 respiration driven by succinate at 5XCmax” value [1, 13] was 0. The “State 3 respiration driven by glutamate/malate at 10XCmax” value [1, 14] was 0, the “State 3 respiration driven by succinate at 10XCmax” value [1, 14] was 0 and the “State 4 respiration driven by glutamate/malate at 10XCmax” value [1, 14] was 0. For the same compound, the “State 4 respiration driven by succinate at 10XCmax” value [1, 14] was 0, the “State 3 respiration driven by glutamate/malate at 20XCmax” value [1, 15] was 0 and the “State 3 respiration driven by succinate at 20XCmax” value [1, 15] was 0. The “State 4 respiration driven by glutamate/malate at 20XCmax” value [1, 15] was 0, the “State 4 respiration driven by succinate at 20XCmax” value [1, 15] was 0 and the “State 3 respiration driven by glutamate/malate at 30XCmax” value [1, 16] was 0. The “State 3 respiration driven by succinate at 30XCmax” value [1, 16] was 0, the “State 4 respiration driven by glutamate/malate at 30XCmax” value [1, 16] was 0 and the “State 4 respiration driven by succinate at 30XCmax” value [1, 16] was 0. For the same compound, the “State 3 respiration driven by glutamate/malate at 50XCmax” value [1, 17] was 0, the “State 3 respiration driven by succinate at 50XCmax” value [1, 17] was 0 and the “State 4 respiration driven by glutamate/malate at 50XCmax” value [1, 17] was 0. For the same compound, the “State 4 respiration driven by succinate at 50XCmax” value [1, 17] was 0, the “State 3 respiration driven by glutamate/malate at 100XCmax” value [1, 18] was 0 and the “State 3 respiration driven by succinate at 100XCmax” value [1, 18] was 0. The “State 4 respiration driven by glutamate/malate at 100XCmax” value [1, 18] was 0, the “State 4 respiration driven by succinate at 100XCmax” value [1, 18] was 0 and the “RCC I at 10XCmax” value [2, 20] was 0. For the same compound, the “RCC II at 1.0XCmax” value [3, 20] was 0, the “RCC II at 2.5XCmax” value [3, 20] was 0 and the “RCC II at 5XCmax” value [3, 20] was 0. The “RCC II at 10XCmax” value [3, 20] was 0, the “RCC II at 20XCmax” value [3, 20] was 0 and the “RCC II at 30XCmax” value [3, 20] was 0. For the same compound, the “RCC II at 50XCmax” value [3, 20] was 0, the “RCC II at 100XCmax” value [3, 20] was 0 and the “RCC IV at 50XCmax” value [5, 20] was 0. For the same compound, the “RCC V at 5XCmax” value [6, 20] was 0, the “MMP measured by Rhodamine 123 at 1XCmax” value [7] was 0 and the “MMP measured by Rhodamine 123 at 2.5XCmax” value [7] was 0. For the same compound, the “MMP measured by Rhodamine 123 at 5XCmax” value [7] was 0, the “MMP measured by Rhodamine 123 at 10XCmax” value [7] was 0 and the “MMP measured by Rhodamine 123 at 20XCmax” value [7] was 0. For the same compound, the “MMP measured by Rhodamine 123 at 30XCmax” value [7] was 0, the “MMP measured by Rhodamine 123 at 50XCmax” value [7] was 0 and the “MMP measured by Rhodamine 123 at 100XCmax” value [7] was 0. For the same compound, the “Swelling 1XCmax” value [8] was 0, the “Swelling 2.5XCmax” value [8] was 0 and the “Swelling 5XCmax” value [8] was 0. The “Swelling 10XCmax” value [8] was 0, the “Swelling 20XCmax” value [8] was 0 and the “Swelling 30XCmax” value [8] was 0. For the same compound, the “Swelling 50XCmax” value [8] was 0, the “Swelling 100XCmax” value [8] was 0 and the Cmax [9, 19] was 0.13 µM. For the same compound, the “DILI potential (based on labeling)” value ([10]; 1 = DILI positive, 0 = negative, ref product labeling) was 1, the “Labeling for DILI” value ([10]; BBW: black box warning, W&P: Warnings and Precautions, ref product labeling) was “W&P: functional hepatic impairment” and the “labeling for DILI” value ([10]; W&P warnings and precautions, BBW black box warnings, ref FDA product labeling) was “W&P: hepatic impairment/ALT monitoring”. The “DILI potential (based on labeling)” value ([10]; ref FDA product labeling) was 1.
